Experimental data: patent US20220370384A1, “COMBINATIONS OF MEK INHIBITORS WITH CAP-DEPENDENT ENDONUCLEASE INHIBITORS” (priority 2019, published 2022)

Experiments:
Assay type in all cases: cell-based, influenza virus
[1] = test system: A/Mississippi/3/2001 (H1N1) mutant strain with the H275Y mutation in the NA gene
[2] = test system: rgA/Victoria/3/75 (H3N2-PA-I38T)
[3] = test system: rgA/Giessen/6/09 (H1N1)-PA-I38T

`CCOC(=O)C1=C[C@@H](OC(CC)CC)[C@H](NC(C)=O)[C@@H](N)C1` [oseltamivir] was tested, and the antiviral effectiveness [1] was “significant reduction in oseltamivir effectiveness”.

`O=C(O)c1ccc(F)c(F)c1Nc1ccc(I)cc1Cl` [ATR002, 2-(2-chloro-4-iodophenylamino)-N-3,4-difluoro benzoic acid] was tested, and the antiviral activity [2] was “revealed its potency against both variants” and the “antiviral effect in mutant strain compared with wild type” value [3] was “steady effect as found in the wild type”.

With `O=C(NOCC1CC1)c1ccc(F)c(F)c1Nc1ccc(I)cc1Cl` [CI-1040] the antiviral effectiveness [1] was “comparable antiviral effect”.

In the case of `COC(=O)OCOc1c2n(ccc1=O)N([C@@H]1c3ccccc3SCc3c1ccc(F)c3F)[C@@H]1COCCN1C2=O` [BLXM], the “activity lost in the mutant variant” value [2] was “about 41%” and the “activity lower when investigated using the mutant strain” value [3] was 37%.
